From patent publication US6372770B1, “Benzoxazoles” (Euro-Celtique, S.A., priority 1994, dated 2002)
Like-named read-outs stand apart in the source and are kept apart here.

Legend:
PDE IV [1] = system: T1, PDE IV; assay: Type IV PDE inhibition, hydrolysis of [3H]-cyclic AMP; format: biochemical, bovine
T1 construct: PDE IV IC50; other: Type IV PDE isolated from bovine tracheal smooth muscle; rolipram run in the
Excerpt: The PDE IV inhibitory compounds of the present invention may be examined for their PDE IV inhibitory effects via the techniques set forth in the following examples, wherein the ability of the compounds to inhibit PDE IV isolated from bovine tracheal smooth muscle is set forth.
The Type IV PDE is isolated from bovine tracheal smooth muscle using a procedure similar to that previously described by Silver, P. J. et al., Eur. J. Pharmacol. 150:85,1988.(1). Briefly, smooth muscle from bovine trachea is minced and homogenized using a polytron in 10 volumes of an extraction buffer containing 10 mM Tris-acetate (pH 7.5), 2 mM magnesium chloride, 1 mM dithiothreitol and 2,000 units/ml of aprotinin. This and all subsequent procedures are performed at 0-4° C. The homogenate is sonicated and then centrifuged at 48,000×g for 30 minutes. The resulting supernatant is applied to a DEAE Trisacryl M column previously equilibrated with sodium acetate and dithiothreitol. After applications of the sample, the column is washed with sodium acetate/dithiothreitol, after whlich the different forms of PDE are eluted from the column using a linear Tris-HCl/NaCl gradient. Fractions containing Type IV PDE are collected, dialyzed and concentrated to 14% of the original volume. The concentrated fractions are diluted to 50% with ethylene glycol and stored at −20° C.
(§1) Enzyme activity is assessed by measuring the hydrolysis of [^3H]-cyclic AMP, as described by Thompson, W. J. et al., Adv. Cyclic Nucleotide Res. 10:69, 1979. The cyclic AMP concentration used in this assay is 0.2 μM, which approximates the Km value. Protein concentration is adjusted to ensure that no more than 15% of the available substrate is hydrolyzed during the incubation period.
(§2) All test compounds are dissolved in dimethyl sulfoxide (final concentration of 2.5%). This concentration of dimethyl sulfoxide inhibits enzyme activity by approximately 10%.

PDE III = target: T2, PDE III (Homo sapiens, UniProt Q14432); assay: Type III PDE inhibition, hydrolysis of [3H]-cyclic AMP; format: biochemical; conditions: Type III PDE isolated from human platelets; 0.2 μM cyclic AMP
T2 construct: Fractions containing PDE III activity are pooled and dialyzed overnight; from tissue; host or cells: human platelets
Description: The Type III PDE is isolated from human platelets using a procedure similar to that previously described by Washer, R. E. et al., Biochem. Pharmacol., 35:787, 1986. Briefly, 1-2 units of platelets are suspended in an equal volume of buffer (20 mM Tris-HCl, pH 7.5, containing 2 mM magnesium acetate, 1 mM dithiothreitol, and 5 mM Na2EDTA). The proteinase inhibitor phenylmethyl-sulfonyl fluoride (PMSF) is also included in this buffer at a final concentration of 200 μM. The suspension is homogenized using a polytron and the homogenate centrifuged at 100,000×g for 60 minutes. This and all subsequent procedures are performed at 0-4° C. The supernatant is then filtered through four layers of gauze and applied to a DEAE-Trisacryl M column, previously equilibrated with buffer B (20 mM Tris-HCl, pH 7.5, containing 1 mM magnesium acetate, 1 mM dithiothreitol and 200 μM PMSF). After application of the sample, the column is washed with several bed volumes of buffer B, after which the different forms of PDE are eluted from the column using two successive linear NaCl gradients (0.05-0.15 M, 300 ml total; 0.15-0.40 M, 200 ml total). Five ml fractions are collected and assayed for cyclic AMP and cyclic GMP PDE activity. Fractions containing PDE III activity are pooled and dialyzed overnight against 4 L of buffer B. The dialyzed PDE III is then concentrated to 10% of the original volume, diluted to 50% with ethylene glycol monoethyl ether and stored at −20° C. PDE III can typically be retained for up to four weeks with little or no loss of activity.
as §1, with “approximates to” for “approximates”
as §2

PDE IV [2] = conditions: cited from earlier work
[3] = Type IV PDE isolated from bovine tracheal smooth muscle, 0.2 μM cyclic AMP, read-out: PDE IV IC50

T2 sequence (Q14432 whole entry): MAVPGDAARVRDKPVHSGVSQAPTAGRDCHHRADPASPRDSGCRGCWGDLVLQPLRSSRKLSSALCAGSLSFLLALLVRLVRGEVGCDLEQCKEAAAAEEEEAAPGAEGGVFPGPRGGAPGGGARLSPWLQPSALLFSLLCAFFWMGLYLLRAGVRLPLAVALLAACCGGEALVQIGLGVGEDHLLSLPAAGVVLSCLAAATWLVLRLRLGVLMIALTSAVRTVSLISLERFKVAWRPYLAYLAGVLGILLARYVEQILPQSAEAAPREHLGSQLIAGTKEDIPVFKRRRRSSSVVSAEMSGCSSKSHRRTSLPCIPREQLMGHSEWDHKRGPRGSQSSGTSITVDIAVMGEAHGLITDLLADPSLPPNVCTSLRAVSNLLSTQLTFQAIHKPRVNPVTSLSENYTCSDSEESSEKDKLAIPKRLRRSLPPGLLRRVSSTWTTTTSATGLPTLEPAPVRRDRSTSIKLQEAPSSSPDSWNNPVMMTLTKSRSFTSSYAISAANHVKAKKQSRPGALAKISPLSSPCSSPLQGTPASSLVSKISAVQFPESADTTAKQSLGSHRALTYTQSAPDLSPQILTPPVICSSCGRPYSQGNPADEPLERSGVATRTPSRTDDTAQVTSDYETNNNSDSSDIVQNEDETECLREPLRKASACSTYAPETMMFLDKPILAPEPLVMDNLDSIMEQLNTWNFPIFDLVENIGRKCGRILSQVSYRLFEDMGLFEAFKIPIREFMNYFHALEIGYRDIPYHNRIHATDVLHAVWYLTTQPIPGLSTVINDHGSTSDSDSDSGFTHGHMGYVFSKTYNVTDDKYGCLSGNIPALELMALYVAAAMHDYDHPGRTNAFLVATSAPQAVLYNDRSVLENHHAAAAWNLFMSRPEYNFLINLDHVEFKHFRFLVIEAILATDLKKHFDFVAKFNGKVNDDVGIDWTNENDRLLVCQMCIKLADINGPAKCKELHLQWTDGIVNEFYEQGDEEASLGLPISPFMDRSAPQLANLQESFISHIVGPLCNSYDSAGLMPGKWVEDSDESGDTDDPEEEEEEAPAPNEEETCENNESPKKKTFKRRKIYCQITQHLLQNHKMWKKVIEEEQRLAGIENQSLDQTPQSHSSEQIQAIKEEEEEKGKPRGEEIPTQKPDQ

Compound | melting point | IC50 (PDE IV [1]; [3]) | IC50 (PDE III) | other results
CC(=O)CCc1cc(Cl)cc2nc(-c3ccccc3Cl)oc12 [Example 9, 4-(5-Chloro-2-(2-chlorophenyl)benzoxazol-7-yl)butan-2-one] | 109 to 110 °C | 600 nM | > 300 µM | 
COc1ccc(Cc2nc3cc(Cl)cc(CC=NO)c3o2)cc1OC1CCCC1 [Example 26, 2-(3-Cyclopentyloxy-4-methoxybenzyl)-5-chlorobenzoxazole-7-ethanal Oxime] | 149 to 151 °C | 370 nM | 11.4 µM | 
CC(=O)Oc1c(C(C)(C)C)cc(CCc2nc3cc(Cl)cc(CCc4ccccn4)c3o2)cc1C(C)(C)C [Example 58(b), 2-[2-(4-acetoxy-3,5-di-t-butyl-phenyl)ethyl]-5-chloro-7-[2-(2-pyridyl)ethyl]-benzoxazole] | 134 to 135 °C |  |  | 
COc1ccc(Cc2nc3cc(Cl)cc(CC=O)c3o2)cc1OC1CCCC1 [Example 25, 2-(3-Cyclopentyloxy-4-methoxybenzyl)-5-chlorobenzoxazole-7-ethanal] | 66 to 68 °C | 650 nM | 118 µM | 
COc1ccc(Cc2nc3cccc([N+](=O)[O-])c3o2)cc1OC1CCCC1 [Example 6, 2-(3-Cyclopentyloxy-4-methoxybenzyl)-7-nitro-benzoxazole] |  | 1600 nM | 0.6 µM | 
Cn1c(=O)c2[nH]cnc2n(C)c1=O [theophylline] |  |  |  | IC50 (PDE IV [2]; read-out: concentration giving 50% inhibition of PDE IV, stated in the description without a test): ~350 µM
COc1ccc(C2CNC(=O)C2)cc1OC1CCCC1 (stereo not shown) [Rolipram, reference compound] |  |  |  | IC50 (PDE IV [1]; read-out: concentration which yields 50% inhibition of PDE IV (IC50), value of the description, rolipram run in the same assay): 2800 nM; IC50 (PDE IV [2]; historically considered value, read-out: PDE IV IC50, historical value): 3.5 µM
COc1ccc(Cc2nc3cccc(NCc4ncc[nH]4)c3o2)cc1OC1CCCC1 [Example 35, 2-(3-Cyclopentyloxy-4-methoxybenzyl)-7-(2-imidazolylmethylamino)Benzoxazole] |  | 19300 nM | > 300 µM | 
COc1ccc(Cc2nc3c(O)cccc3o2)cc1OC1CCCC1 [Example 7, 2-(3-Cyclopentyloxy-4-methoxybenzyl)-4-hydroxy-benzoxazole] |  | 500 nM | 124 µM | 
2-(3-Cyclopentyloxy-4-methoxybenzyl)-5-chloro-7-(2-hydroxyethyl)benzoxazole Carbamate [Example 28] |  | 700 nM | 36.8 µM | 
C=CCc1cc(Cl)cc2nc(Cc3ccccc3Cl)oc12 [Example 38, 2-(2-Chlorobenzyl)-5-chloro-7-allylbenzoxazole] |  | 5400 nM | 107 µM | 

Continued, in another order:

melting point | IC50 (PDE IV [1]; [3]) | IC50 (PDE III) | Compound | other results
72 to 79 °C |  |  | OCCCCCc1cc(Cl)cc2nc(Cc3ccccc3Cl)oc12 [Example 60(b), 5-chloro-2-(2-chlorobenzyl)-7-(5-hydroxypentyl)-benzoxazole] | 
181 to 183 °C |  |  | NC(=O)CCc1cc(Cl)cc2nc(Cc3ccccc3Cl)oc12 [Example 55(a), 5-Chloro-2-(2-chlorobenzyl)-benzoxazole-7-propanamide] | 
149 to 151 °C |  |  | Clc1cc(C#Cc2nccs2)c2oc(Cc3ccccc3Cl)nc2c1 [Example 59(a), 5-chloro-2-(2-chlorobenzyl)-7-[2-(2-thiazolyl)ethynyl]-benzoxazole] | 
 | 16000 nM | 48.6 µM | OCCCc1cc(Cl)cc2nc(Cc3cccc(Cl)c3)oc12 [Example 42, 3-[5-Chloro-2-(3-chlorobenzyl)benzoxazol-7-yl]propan-1-ol] | 
 | 15200 nM | 53.9 µM | COCCCc1cc(Cl)cc2nc(Cc3ccccc3Cl)oc12 [Example 39, 2-(2-Chlorobenzyl)-5-chloro-7-(3-methoxy-1-propyl)Benzoxazole] | 
95 to 97 °C |  |  | COc1ccc(Cc2nc3cccc(CCCO)c3o2)cc1OC [Example 61, 2-(3,4-dimethoxybenzyl)-7-(3-hydroxy-propyl)-benzoxazole] | 
